According to US7049461B1, “Treatment of leukemia” (University of Central Florida, priority 2001, dated 2006):

Tests used:
[1] = test system: human leukemia cancer cells (ATCC JURK); experiment: Cytotoxicity assay: growth inhibition of Jurkat cells (MTS/PMS); format: cell-based; conditions: approximately 48 hours, test concentration not given
Experimental: The activity against leukemia cancer cells of the compounds (as earlier reported) was realized by the following procedure which determines the inhibitory effect of test samples on the growth of human leukemia cancer cells (ATCC JURK). The Jurkat cells are grown in RPMI 1640 media+10% Fetal bovine serum+1% Antibiotic/Antimycotic+1% of HEPES Buffer (1M)+1% Sodium Purivate (100 mM)+2.5% D-(+) Glucose Solution for approximately 48 hours at 37° C./5% CO2 […] compound.
Growth/Non-Growth of the cells (e.g., cell density) is determined using Promega's MTS/PMS assay system. MTS (3-(4,5-dimethylthiazol-2-yl)-5-(3-carboxymethoxyphenyl)-2-(4-sulfophenyl)-2H-tetrazolium, inner salt) is an aqueous compound that is reduced to soluble formazan by the presence of NADH formed by dehydrogenases present within the Jurkat cells. The absorbance of the formazan can be measured at 490 nm and is directly proportional to the number of living cells present in the culture. PMS (Phenazine Methosulfate) is added an electron coupling reagent and greatly increases the rate of reduction. […]
In order to establish the accuracy of this assay a Positive Control consisting of 50 μM Methotrexate should […] the net absorbance to less than 90% of the Negative Control (Jurkat cells are somewhat resistant to methotrexate) is utilized.

[2] = Solubility in organic solvents; format: physicochemical
Stability in solutions = format: physicochemical; conditions: solution heated or stored for a long time; forms OF-12
mice = conditions: cited from earlier work

Row | SMILES | percent activity against human leukemia [1] | Solubility ([2]; in DMSO, DMFA, dichloroethane, acetonitrile) | Solubility ([2]; in hexane) | Stability in solutions (Stability in solutions) | toxicity in mice LD50 (mice)
1 | CCOc1ccc(C(Cl)=CC(=NN=C2c3ccccc3-c3ccccc32)C(=O)OC)cc1 [3F-19, 4-Chloro-4-(4-ethoxy-phenyl)-2-(fluoren-9-ylidene-hydrazono)-but-3-enoic acid methyl ester] | 100% |  |  |  | 
2 | CCOc1ccc(C(=O)CC(O)(NN=C2c3ccccc3-c3ccccc32)C(=O)OC)cc1 (stereo not shown) [OF-13, 4-(4-Ethoxy-phenyl)-2-(N′-fluoren-9-ylidene-hydrazino)-2-hydroxy-4-oxo-butyric acid methyl ester] | 97% | highly soluble | insoluble | not stable in solutions and decomposes quickly | 
3 | Nc1ccn([C@@H]2O[C@H](CO)[C@@H](O)[C@@H]2O)c(=O)n1 [cytarabine] |  |  |  |  | 826 mg/kg
4 | COc1cccc2c1C(=O)c1c(O)c3c(c(O)c1C2=O)C[C@@](O)(C(C)=O)C[C@@H]3O[C@H]1C[C@H](N)[C@H](O)[C@H](C)O1 [daunorubicin] |  |  |  |  | 26 mg/kg
